Data published in PubChem BioAssay (NCI).
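Results reflect a 48-hour exposure of cells in 96-well plates to compound at five concentrations. GI50: concentration for 50% inhibition of growth. TGI denotes the concentration required for complete inhibition of growth.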

Columns and labels:
Test in all cases: NCI anticancer screen, dose series, 48 h
HCT-116 colon = tested on: HCT-116 colon
CCRF-CEM leukemia = tested on: CCRF-CEM leukemia
MDA-MB-435 = tested on: MDA-MB-435
PC-3 prostate = tested on: PC-3 prostate
CAKI-1 renal = tested on: CAKI-1 renal
A498 renal = tested on: A498 renal
NCI-H460 lung = tested on: NCI-H460 lung
UACC-257 melanoma = tested on: UACC-257 melanoma
SF-295 CNS = tested on: SF-295 CNS
NCI-H226 lung = tested on: NCI-H226 lung

Row | Structure (SMILES) | TGI (HCT-116 colon) | TGI (CCRF-CEM leukemia) | TGI (MDA-MB-435) | TGI (PC-3 prostate) | TGI (CAKI-1 renal) | TGI (A498 renal) | TGI (NCI-H460 lung) | TGI (UACC-257 melanoma) | TGI (SF-295 CNS) | TGI (NCI-H226 lung) | GI50 (HCT-116 colon) | GI50 (CCRF-CEM leukemia) | GI50 (MDA-MB-435) | GI50 (PC-3 prostate) | GI50 (CAKI-1 renal) | GI50 (A498 renal) | GI50 (NCI-H460 lung) | GI50 (UACC-257 melanoma) | GI50 (SF-295 CNS) | GI50 (NCI-H226 lung)
1 | CCC(=O)OCN(C)c1nc(N(C)COC(=O)CC)nc(N(C)COC(=O)CC)n1 | 64 µM | > 100 µM | > 100 µM | > 100 µM | > 100 µM | > 100 µM | > 100 µM | > 100 µM | > 100 µM | > 100 µM | – | – | – | – | – | – | – | – | – | –
2 | O=C(N[C@@H](Cc1coc2ccccc12)B(O)O)[C@@H]1C[C@H]2CC[C@@H]1O2 | 27.1 µM | > 100 µM | 4.04 µM | > 100 µM | > 100 µM | 5.73 µM | > 100 µM | > 100 µM | 17.6 µM | 2.76 µM | 3.25 µM | 1.2 µM | 1.76 µM | 41.2 µM | 4.47 µM | 0.702 µM | 30.7 µM | 6.28 µM | 3.93 µM | 1.13 µM
3 | COc1ccc(C2COc3c(ccc(O)c3C)C2)cc1OC (stereo not drawn) | 153 µM | > 200 µM | – | – | > 200 µM | > 31.7 µM | > 193 µM | > 200 µM | > 176 µM | > 139 µM | – | – | – | – | – | – | – | – | – | –
4 | COc1ccc(/C=N/n2cnc3c(c2=O)SC(=C(C#N)C#N)N3c2ccccc2)cc1 | > 100 µM | > 100 µM | – | – | – | – | > 100 µM | > 100 µM | > 100 µM | > 100 µM | – | – | – | – | – | – | – | – | – | –
5 | CCCO[C@@H]1[C@@H](OC(C)=O)[C@@H](OC(C)=O)C(C)(C)/C=C/[C@H](C)C(=O)[C@@]2(OC(C)=O)C[C@@](C)(OC(C)=O)[C@H](OC(C)=O)[C@@H]2[C@H]2OC(=O)CC[C@@]12OC(=O)c1ccccc1 | > 25 µM | > 25 µM | > 25 µM | > 25 µM | > 25 µM | – | > 25 µM | > 25 µM | > 25 µM | > 25 µM | – | – | – | – | – | – | – | – | – | –
6 | COC(=O)C1=C(OC)[C@H]2C#C/C=C\C#C[C@@H]3Nc4c(cc(O)c5c4C(=O)c4ccccc4C5=O)[C@]24O[C@@]34[C@H]1C | 7.6 µM | < 0.01 µM | 0.0448 µM | 0.138 µM | < 0.01 µM | < 0.01 µM | > 100 µM | 0.0363 µM | < 0.01 µM | < 0.01 µM | – | – | – | – | – | – | – | – | – | –
7 | C/C(=N\NC(=S)N1CCCC1)c1nc2ncccc2[nH]1 | 18.1 µM | 1.1 µM | > 100 µM | > 100 µM | 37.1 µM | 27.1 µM | 1.68 µM | 10.7 µM | 22.6 µM | 4.31 µM | – | – | – | – | – | – | – | – | – | –
8 | C(=Nc1ccc2c(c1)Cc1ccccc1-2)c1ccccn1 | > 100 µM | > 100 µM | > 100 µM | > 100 µM | > 100 µM | > 100 µM | > 100 µM | 79.1 µM | > 100 µM | > 100 µM | – | – | – | – | – | – | – | – | – | –
